Counter-ions that a name gives are not always drawn. Like-named read-outs stand apart in the source and are kept apart here.
Tests used:
[1] = biological target: T1, dopamine D2 receptors (Rattus norvegicus, UniProt P61169); assay: DOPAC concentrations in rat nucleus accumbens (in vivo D2 receptor blockade); details: dose that increases DOPAC to 200% of control, 90 minutes after gavage
T1 construct: from tissue; host or cells: male Sprague Dawley rats, nucleus accumbens (in vivo)
Description: Antipsychotics are believed to exert at least part of their therapeutic effects through blockade of the dopamine D2 receptor. The ability of a compound to block dopamine D2 receptors in the rat in vivo was determined by measuring the effect of the compound on the level of DOPAC (3,4-dihydroxyphenylacetic acid), a metabolite of dopamine, in nucleus accumbeus of the rat. Dopamine D2 receptor antagonists increase the release of dopamine into the synapse due to blockade of the dopamine D2 autoreceptor. This increased release of dopamine cannot be directly measured, since the efficiency of the dopamine reuptake system prevents increases in synaptic dopamine concentrations. Instead, increases in the levels of the dopamine metabolites DOPAC (3,4-dihydroxyphenylacetic acid) and HVA (homovanillic acid) reflect increased neuronal dopaminergic activity in vivo.
(§1) Male Sprague Dawley rats (Harlan Sprague Dawley, Inc., Indianapolis, Ind.) weighing 110 grams were fasted overnight. […] All other compounds were administered at 5 ml/kg in dilute lactic acid. Tissues were dissected, frozen on dry ice and stored at −70° C. prior to analysis.
Rat nucleus accumbens DOPAC (3,4-dihydroxyphenylacetic acid) concentrations were measured using high-pressure liquid chromatography with electrochemical detection (HPLC-EC). Tissues were sonicated in 1 ml 0.1N TCA. After centrifugation, a 25 µl aliquot of supernatant was injected onto a BDS Hypersyl C18 column (150×4.6 mm, Keystone Scientific). The elution buffer contained 75 mM sodium phosphate monobasic, 0.5 mM EDTA, 350 mg/L 1-octanesulfonate sodium, 7% acetonitrile (v/v) and 0.7% tetrahydrofuran (v/v), pH 3.0. The flow rate was 1.2 ml/min at 40° C. Peak heights were measured at 750 mV at 10 nA sensitivity and compared with samples containing known amounts of DOPAC standards.

[2] = biological target: T2, Dopamine D2 receptor (Homo sapiens, UniProt P14416); assay: Dopamine D2 receptor binding assay ([125I]iodospiperone)
T2 construct: purchased Receptor Biology (now owned by NEN) RBHD2CM
T2 sequence (P14416 1-414 isoform P14416-2): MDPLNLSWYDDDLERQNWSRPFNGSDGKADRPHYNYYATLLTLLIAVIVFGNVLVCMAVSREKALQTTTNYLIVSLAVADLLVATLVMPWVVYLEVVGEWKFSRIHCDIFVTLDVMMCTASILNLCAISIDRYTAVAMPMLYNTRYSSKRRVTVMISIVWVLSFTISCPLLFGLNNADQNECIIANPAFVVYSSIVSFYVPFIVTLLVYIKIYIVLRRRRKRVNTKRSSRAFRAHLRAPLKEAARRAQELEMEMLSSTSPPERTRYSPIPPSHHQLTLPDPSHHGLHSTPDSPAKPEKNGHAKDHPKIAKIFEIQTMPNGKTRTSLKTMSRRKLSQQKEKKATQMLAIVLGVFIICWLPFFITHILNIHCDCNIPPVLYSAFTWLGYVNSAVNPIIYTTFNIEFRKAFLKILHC

[3] = biological target: T3, hypothalamic histamine H1 receptors (Rattus norvegicus, UniProt P31390); assay: Histamine H1 ex vivo binding ([3H]-pyrilamine, rat hypothalamic homogenates); format: in vivo; details: rat hypothalamus; dose required to occupy 50% of histamine H1 receptors; 90 minutes after gavage
T3 construct: from tissue; host or cells: hypothalamus of male Sprague Dawley rats
T3 sequence (P31390 whole entry): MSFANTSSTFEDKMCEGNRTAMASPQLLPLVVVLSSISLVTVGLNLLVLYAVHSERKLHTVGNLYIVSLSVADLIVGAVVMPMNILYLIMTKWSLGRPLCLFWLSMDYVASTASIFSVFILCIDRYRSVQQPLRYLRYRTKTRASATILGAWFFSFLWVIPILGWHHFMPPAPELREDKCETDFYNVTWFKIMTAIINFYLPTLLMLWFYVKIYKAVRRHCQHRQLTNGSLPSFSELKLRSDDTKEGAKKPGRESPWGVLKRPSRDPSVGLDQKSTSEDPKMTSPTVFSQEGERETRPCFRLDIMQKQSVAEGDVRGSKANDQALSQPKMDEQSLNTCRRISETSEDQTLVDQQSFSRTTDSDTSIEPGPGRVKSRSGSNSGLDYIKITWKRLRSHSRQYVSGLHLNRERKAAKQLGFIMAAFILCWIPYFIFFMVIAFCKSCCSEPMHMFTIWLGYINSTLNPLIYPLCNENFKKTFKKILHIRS
Description: The in vivo potency of a compound to occupy hypothalamic histamine H1 receptors in the rat was determined using a histamine H1 ex vivo binding assay.
as §1
Ex vivo binding of the histamine H1 antagonist [^3H]-pyrilamine (NEN Life Science Products) to rat hypothalamic homogenates was determined. Tissues were homogenized in 600 μl incubation buffer (50 mM sodium phosphate monobasic, pH 7.4) and pre-incubated 10 minutes at 37° C. to remove endogenous histamine. Triplicate tubes, each containing 100 μl homogenate, were combined with 1 ml buffer containing 3 nM [^3H]-pyrilamine and incubated 30 minutes at 25° C. […] [^3H]-pyrilamine binding was measured after separation filtration using a Brandell cell harvester with GF/C filters which had been soaked in 0.1% polyethylenimine. ED50 values were determined using the Allfit statistical program for displacement binding.

[4] = biological target: T4, human Histamine-1 receptors (Homo sapiens, UniProt P35367); assay: 3H-Pyrilamine SPA binding to human Histamine-1 receptors; details: read-out: Receptor affinity (Ki, nM) H1
T4 construct: expressed in transfected cells
T4 sequence (P35367 whole entry): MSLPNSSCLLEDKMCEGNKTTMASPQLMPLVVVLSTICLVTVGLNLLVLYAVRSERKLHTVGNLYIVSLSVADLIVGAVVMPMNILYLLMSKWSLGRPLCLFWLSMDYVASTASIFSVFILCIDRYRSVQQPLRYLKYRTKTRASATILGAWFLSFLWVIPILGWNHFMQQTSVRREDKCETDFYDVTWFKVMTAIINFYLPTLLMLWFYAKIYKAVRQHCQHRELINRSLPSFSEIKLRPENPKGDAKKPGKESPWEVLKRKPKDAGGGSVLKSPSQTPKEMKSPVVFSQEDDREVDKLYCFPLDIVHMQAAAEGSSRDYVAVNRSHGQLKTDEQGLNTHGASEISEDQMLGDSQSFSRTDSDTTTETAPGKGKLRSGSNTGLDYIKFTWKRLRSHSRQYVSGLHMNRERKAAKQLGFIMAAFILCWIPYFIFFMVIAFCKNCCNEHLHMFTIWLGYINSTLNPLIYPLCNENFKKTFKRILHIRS
Description: Their ability of a compound to block histamine H1 receptors can be estimated in vitro by measuring the in vitro histamine H1 receptor affinity. […] The ratio of in vitro histamine H1 receptor affinity divided by the in vitro dopamine D2 receptor affinity, both expressed as Ki's, is an estimate of a compound's likelihood to cause weight gain at therapeutic levels. […] Incubations were performed in a total volume of 200 μl in 96 well assay plates. 50 μl ^3H-pyrilamine (NEN, 20 Ci/mmol, final concentration=3.0 nM) was added to 50 μl of test compounds dissolved in water (±DMSO and/or glacial acetic acid). 50 μl Wheat Germ Agglutinin (WGA) bead, at 1 mg/well, (Amersham Life Sciences) in assay buffer (67 mM TrisCl pH 7.4) were then added. Membrane homogenate from cells expressing human Histamine-1 receptors, approximately 700,000 cells/well, was added last. The plates were covered with sealing tape (FasCal) and allowed to incubate at room temperature for 2 hours. The plates were then centrifuged at approximately 200×g for 10 minutes at room temperature. The amount of ^3H-pyrilamine bound to the membranes, ie proximate to the WGA bead, was then determined using a Wallac MicroBeta Trilux Scintillation Counter (Wallac, Inc.).

[5] = read-out: Receptor affinity (Ki, nM) D2

T1 sequence (P61169 whole entry): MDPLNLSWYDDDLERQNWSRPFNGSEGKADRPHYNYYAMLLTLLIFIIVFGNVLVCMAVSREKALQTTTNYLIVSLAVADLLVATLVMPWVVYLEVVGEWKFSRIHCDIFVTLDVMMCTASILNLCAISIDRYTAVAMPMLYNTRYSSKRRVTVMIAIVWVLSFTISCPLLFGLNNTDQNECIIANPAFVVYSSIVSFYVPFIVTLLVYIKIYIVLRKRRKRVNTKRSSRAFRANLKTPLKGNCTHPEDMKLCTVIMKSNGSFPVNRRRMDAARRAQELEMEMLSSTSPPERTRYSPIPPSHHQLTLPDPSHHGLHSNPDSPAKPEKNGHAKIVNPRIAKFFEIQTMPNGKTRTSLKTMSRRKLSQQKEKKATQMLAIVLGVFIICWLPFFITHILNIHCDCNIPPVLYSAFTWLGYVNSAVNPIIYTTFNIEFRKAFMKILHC

SMILES	In vivo activity D2: DOPAC elevation (ED200) [1]	Ki [2, 5] [nM]	In vivo activity H1: H1 ex vivo binding (ED50) [3]	Ki [4] [nM]	Ki ([2]; relative Ki scale of Table 5, read-out: Relative D2 Receptor Binding Affinity Ki) [nM]
COCC[C@H]1CN(C2=Nc3cc(F)c(F)cc3Nc3sc(C)cc32)CCN1C.Cl.Cl [Example 288, (S)-6,7-Difluoro-10-[3-(2-methoxy-ethyl)-4-methyl-piperazin-1-yl]-2-methyl-4H-3-thia-4,9-diaza-benzo[f]azulene hydrochloride]	6.4 mg/kg, po	11	>30 mg/kg, po	80	
COCC[C@H]1CN(C2=Nc3ccc(F)cc3Nc3sc(C)cc32)CCN1C [Example 279, (S)-6-Fluoro-10-[3-(2-methoxy-ethyl)-4-methyl-piperazin-1-yl]-2-methyl-4H-3-thia-4,9-diaza-benzo[f]azulene hydrochloride]	6 mg/kg, po	6	>30 mg/kg, po	24	
COCC[C@H]1CN(C2=Nc3ccccc3Nc3sc(C(C)C)nc32)CCN1C.Cl.Cl [Example 327, (S)-10-[3-(2-Methoxyethyl)-4-methylpiperazin-1-yl]-2-isopropyl-4H-3-thia-1,4,9-triazabenzo[f]azulene dihydrochloride]	4 mg/kg, po	9	>30 mg/kg, po	91	< 10
COCC[C@H]1CN(C2=Nc3cc(Cl)ccc3Nc3sc(C)cc32)CCN1C [Example 292, (S)-7-Chloro-10-[3-(2-methoxy-ethyl)-4-methyl-piperazin-1-yl]-2-methyl-4H-3-thia-4,9-diaza-benzo[f]azulene dihydrochloride]	7.5 mg/kg, po	13	>30 mg/kg, po	48	

Reference: patent US7384934B2, “Piperazine substituted aryl benzodiazepines” (Eli Lilly and Company, priority 2002, dated 2008)
